5 molecules from ChEMBL document CHEMBL4261565, “A systematic analysis of atomic protein-ligand interactions in the PDB” (Medchemcomm, 2017) can be followed below.

Molecules are shown by their SMILES.

The target of this test is Coagulation factor X (Homo sapiens, UniProt P00742). Description: Inhibition of human factor 10a using […] as substrate by spectrophotometric method.
Sequence of Coagulation factor X (P00742 41-179 limits assumed): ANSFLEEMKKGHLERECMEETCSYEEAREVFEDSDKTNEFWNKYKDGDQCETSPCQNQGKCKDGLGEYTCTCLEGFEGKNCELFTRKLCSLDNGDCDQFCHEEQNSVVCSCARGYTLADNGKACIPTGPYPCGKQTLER
Sequence of Coagulation factor X (P00742 235-488 limits assumed): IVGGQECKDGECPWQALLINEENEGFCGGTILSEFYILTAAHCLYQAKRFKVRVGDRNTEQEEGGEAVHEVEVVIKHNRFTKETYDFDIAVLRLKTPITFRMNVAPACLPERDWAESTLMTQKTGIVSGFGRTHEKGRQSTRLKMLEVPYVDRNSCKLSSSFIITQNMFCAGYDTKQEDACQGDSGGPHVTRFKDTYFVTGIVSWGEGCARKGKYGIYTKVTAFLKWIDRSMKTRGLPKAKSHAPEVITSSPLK
As for `NCCCN1C(=O)[C@@H]2[C@H](C1=O)[C@H](c1cc(-c3ccc(Cl)s3)on1)N1CCC[C@@H]21` (racemic), affinity was put at a Ki of 9800 nM.
Under `CC(C)(C)CCCN1C(=O)[C@@H]2[C@H](C1=O)[C@H](c1cc(-c3ccc(Cl)s3)on1)N1CCC[C@@H]21` (racemic) stands 550 nM; under `CN(C)CCCN1C(=O)[C@@H]2[C@H](C1=O)[C@H](c1cc(-c3ccc(Cl)s3)on1)N1CCC[C@@H]21` (racemic), 56 nM; under `CNCCCN1C(=O)[C@@H]2[C@H](C1=O)[C@H](c1cc(-c3ccc(Cl)s3)on1)N1CCC[C@@H]21` (racemic), 911 nM.
In the case of `C[N+](C)(C)CCCN1C(=O)[C@@H]2[C@H](C1=O)[C@H](c1cc(-c3ccc(Cl)s3)on1)N1CCC[C@@H]21` (racemic) it was 9 nM.

Usually Ki stands for the dissociation constant of the complex between target and ligand, obtained from inhibition or displacement. High values mean lower affinity, low ones higher affinity.
